Values joined by “and” are separate entries in the source; they are usually repeats but may differ in a detail not shown here. Identical values can stand only once.
Assays:
[1] = PTH(1-34) level in plasma after caudal vein and subcutaneous administration (pharmacokinetics); assay type: in vivo, rat
Experimental: Changes of PTH(1-34) level in plasma by caudal vein administration (iv) and subcutaneous administration (sc) were examined. hPTH(1-34) was diluted with phosphate buffer solution (PBS)/0.05% Tween 80 and adjusted to 10 nmol/ml. Female SD-IGS rats at 8 weeks of age (Charles River Japan, Inc.) were used for the experiment. A single dose administration was carried out by caudal vein administration and subcutaneous administration, and blood was collected from tail vein using a capillary tube for blood collection in a time-dependent manner (at pre-administration, 2.5, 5, 7.5, 10, 15, 30, 60, 90, 120 min.). After EDTA plasma was isolated, the collected blood samples were stored at -80° C. until the hPTH(1-34) level was measured. The PTH(1-34) level was measured by ELISA method using PTH(1-34) (human)-EIA kit (Peninsula Laboratories).

patients = conditions: subcutaneous administration, Neer et al. 2001; cited from earlier work
[2] = system: patients with primary osteoporosis; assay: Safety evaluation: adverse events and side effects in transnasal clinical study; assay type: in vivo, human
Experimental: […] Here, hPTH1-34 transnasal administration formulation was produced by the method in Example 2 of International Patent Publication No. WO02/02136. Using a nebulizer VP-7 (Valois) which uniformly sprays 100 μL of the drug solution by pumping once, one pumping for each nasal cavity, the total of 200 μL of the drug solution was sprayed daily. […] A single dose containing each amount of hPTH(1-34) was administered once a day on consecutive days of 12 weeks, and effectiveness and safety of each amount was confirmed. Safety evaluation: the occurrence number of adverse events was counted and evaluated. In counting adverse and other events, coding to preferred terms (PT) and classification of adverse event names into system organ classes (SOC) were conducted based on “MedDRA Version6.1”.

[3] = rat, iv (caudal vein) single dose, 10 nmol/ml solution, female SD-IGS rats, plasma
[4] = rat, sc single dose, 10 nmol/ml solution, female SD-IGS rats, plasma
[5] = transnasal, all dose groups, 97 subjects for safety evaluation

CC[C@H](C)[C@H](NC(=O)[C@H](CCC(=O)O)NC(=O)[C@H](CO)NC(=O)[C@@H](NC(=O)[C@@H](N)CO)C(C)C)C(=O)N[C@@H](CCC(N)=O)C(=O)N[C@@H](CC(C)C)C(=O)N[C@@H](CCSC)C(=O)N[C@@H](Cc1cnc[nH]1)C(=O)N[C@@H](CC(N)=O)C(=O)N[C@@H](CC(C)C)C(=O)NCC(=O)N[C@@H](CCCCN)C(=O)N[C@@H](Cc1cnc[nH]1)C(=O)N[C@@H](CC(C)C)C(=O)N[C@@H](CC(N)=O)C(=O)N[C@@H](CO)C(=O)N[C@@H](CCSC)C(=O)N[C@@H](CCC(=O)O)C(=O)N[C@@H](CCCN=C(N)N)C(=O)N[C@H](C(=O)N[C@@H](CCC(=O)O)C(=O)N[C@@H](Cc1c[nH]c2ccccc12)C(=O)N[C@@H](CC(C)C)C(=O)N[C@@H](CCCN=C(N)N)C(=O)N[C@@H](CCCCN)C(=O)N[C@@H](CCCCN)C(=O)N[C@@H](CC(C)C)C(=O)N[C@@H](CCC(N)=O)C(=O)N[C@@H](CC(=O)O)C(=O)N[C@H](C(=O)N[C@@H](Cc1cnc[nH]1)C(=O)N[C@@H](CC(N)=O)C(=O)N[C@@H](Cc1ccccc1)C(=O)O)C(C)C)C(C)C [hPTH(1-34)]
PK profile of iv administration compared with sc administration ([1]; iv versus sc single dose, rats): more pulse-like PK
AUC [1, 3]: 17.8 ng·h/mL
half-life [1, 3]: 6.9 min
AUC [1, 4]: 3.83 ng·h/mL
Cmax [1, 4]: 9 ng/mL
Tmax [1, 4]: 20 min
half-life [1, 4]: 10.8 min
frequency of dizziness (patients): 9%
frequency of headache (patients): 13%
frequency of leg cramps (patients): 3%
frequency of nausea (patients): 18%
number of adverse events ([2]; transnasal, 250-μg group): 46 events
number of side effect events ([2]; transnasal, 250-μg group): 12 events
subjects with adverse events ([2]; transnasal, 250-μg group): 71.0%
subjects with side effects ([2]; transnasal, 250-μg group): 22.6%
number of adverse events ([2]; transnasal, 500-μg group): 51 events
number of side effect events ([2]; transnasal, 500-μg group): 10 events
subjects with adverse events ([2]; transnasal, 500-μg group): 76.7%
subjects with side effects ([2]; transnasal, 500-μg group): 26.7%
number of adverse events ([2]; transnasal, 1,000-μg group): 48 events
number of side effect events ([2]; transnasal, 1,000-μg group): 13 events
subjects with adverse events ([2]; transnasal, 1,000-μg group): 69.0%
subjects with side effects ([2]; transnasal, 1,000-μg group): 24.1%
number of adverse events ([2]; transnasal, 1,500-μg group): 10 events
number of side effect events ([2]; transnasal, 1,500-μg group): 2 events
subjects with adverse events ([2]; transnasal, 1,500-μg group): 71.4%
subjects with side effects ([2]; transnasal, 1,500-μg group): 28.6%
frequency of leg cramps ([2]; transnasal, all dose groups): no observation and 0%
frequency of nausea ([2]; transnasal, all dose groups): no observation and 0%
number of side effect events ([2]; transnasal, all dose groups): 37 events
occurrence rate of clinical examination (SOC) ([2]; transnasal, all dose groups): 19.6%
occurrence rate of dizziness ([2]; transnasal, all dose groups): 4.1%
occurrence rate of headache ([2]; transnasal, all dose groups): 7.2%
occurrence rate of heat failure (SOC) ([2]; transnasal, all dose groups): 21.6%
occurrence rate of infectious disease and parasitic disease (SOC) ([2]; transnasal, all dose groups): 18.6%
occurrence rate of nasopharyngitis (PT) ([2]; transnasal, all dose groups): 14.4%
occurrence rate of supraventricular premature beat (PT) ([2]; transnasal, all dose groups): 12.4%
occurrence rate of ventricular premature beat (PT) ([2]; transnasal, all dose groups): 5.2%
side effect events with the occurrence rate of 5% or more ([2]; transnasal, all dose groups): no event
subjects with side effects ([2]; transnasal, all dose groups): 24.7%
number of adverse events [2, 5]: 155 events
subjects with adverse events [2, 5]: 72.2%

— patent publication US20070213272A1, “Transmucosal Administration Agent Containing Pth” (priority 2004, published 2007)
